# Source: ChEMBL document CHEMBL4673352, “Discovery of AZD4573, a Potent and Selective Inhibitor of CDK9 That Enables Short Duration of Target Engagement for the Treatment of Hematological Malignancies” (J Med Chem, 2020)
# Tests used:
# Homo sapiens [1] = species: Homo sapiens; assay: (§1) Selectivity ratio of IC50 for CDK5 (unknown origin) in presence of 5 mM ATP to IC50 for Inhibition of recombinant full length human N-terminal GST-fused CDK9 (1 to 372 residues)/His-tagged CyclinT1 (1 to 726 residues) expressed in baculovirus infected insect cells
# Homo sapiens [2] = species: Homo sapiens; assay: Selectivity ratio of IC50 for CDK3 (unknown origin) in presence of 5 mM ATP to IC50 for Inhibition of recombinant full length human N-terminal GST-fused CDK9 (1 to 372 residues)/His-tagged CyclinT1 (1 to 726 residues) expressed in baculovirus infected insect cells
# Homo sapiens [3] = species: Homo sapiens; assay: as §1, with “recombinant full length human His-tagged CDK1/CyclinB expressed” for “CDK5 (unknown origin)”, “baculovirus infected insect cells” for “presence of 5 mM ATP”
# [4] = Drug metabolism in human hepatocytes assessed as (1S,3R)-3-acetamido-N-(5-fluoro-4-(6-hydroxy-5,5-dimethyl-5,6-dihydro-4H-pyrrolo[1,2-b]pyrazol-3-yl)pyridin-2-yl)cyclohexanecarboxamide metabolite formation; format: ADME, cell-based, Hepatocyte
# [5] = Clearance in Beagle dog plasma at […], iv administered as 0.25 hrs infusion; format: ADME, organism-based, Canis lupus familiaris; conditions: dose 0.24 µmol/kg
# [6] = target: Cyclin-dependent kinase 7/ cyclin H (Homo sapiens) (UniProt P51946+P50613); assay: Inhibition of human recombinant full-length CDK7/CyclinH using peptide as substrate incubated for 40 mins in presence of [gamma-33P]ATP at 1 uM by scintillation counting method relative to control; format: protein-complex assay
# CDK9/cyclin T1 [7] = target: CDK9/cyclin T1 (Homo sapiens, UniProt O60563+P50750); assay: Binding affinity to human CDK9/CyclinT assessed as dissociation rate constant by surface plasmon resonance analysis; format: protein-complex assay
# CDK9/cyclin T1 [8] = target: CDK9/cyclin T1 (Homo sapiens, UniProt P50750); assay: Binding affinity to human CDK9/CyclinT assessed as equilibrium dissociation constant by surface plasmon resonance analysis; format: protein-complex assay
# [9] = target: T1, Cyclin-dependent kinase 9 (Homo sapiens, UniProt P50750); assay: Inhibition of CDK9 in human MCF7 cells assessed as reduction in RNA Polymerase 2 CTD phosphorylation at Ser2 residues measured after 6 hrs by immunofluorescence assay; format: cell-based
# [10] = target: T1, Cyclin-dependent kinase 9; assay: Inhibition of CDK9 in human MV4-11 cells assessed as induction of caspase-3/7 activation measured after 6 hrs followed by Caspase-glo reagent based assay; format: cell-based
# MV4-11 [11] = assay: Antitumor activity against human MV4-11 cells xenografted in CB17 SCID mouse assessed as tumor growth inhibition at 5 mg/kg, ip BID administered at 2 hrs dose interval with 2 days on and 5 days off dosing schedule measured 33 days post initial dose; format: functional; conditions: MV4-11, ip, 792 h, time 33 day, read-out: TGI
# MV4-11 [12] = assay: Antitumor activity against human MV4-11 cells xenografted in ip dosed CB17 SCID mouse assessed as cell death administered twice daily at 2 hrs dose interval with 2 days on and 5 days off dosing schedule; format: functional, organism-based
# [13] = Drug metabolism in human liver microsome assessed as (1S,3R)-3-acetamido-N-(5-chloro-4-(6-hydroxy-5,5-dimethyl-5,6-dihydro-4H-pyrrolo[1,2-b]pyrazol-3-yl)pyridin-2-yl)cyclohexanecarboxamide formation at 10 uM measured after 1 hr in presence of NADPH by LC-UV-MS analysis; format: ADME; conditions: microsomes
# [14] = Volume of distribution at steady state in Beagle dog at 0.23 umol/kg, iv administered over 0.25 hrs formulated as solution in 10% DMSO/90% water; format: ADME, organism-based, Canis lupus familiaris; conditions: in vivo, dose 0.23 µmol/kg, read-out: Vdss
# [15] = Clearance in cynomolgus monkey plasma at 0.46 umol/kg, iv administered over 0.25 hrs formulated as solution in DMA/PEG400/Tween80; format: ADME, organism-based, Macaca fascicularis; conditions: dose 0.46 µmol/kg
# [16] = Clearance in mouse plasma at 2.3 umol/kg, iv formulated as solution; format: ADME, organism-based; conditions: dose 2.3 µmol/kg
# [17] = target: Casein kinase I isoform gamma-1 (Homo sapiens, UniProt Q9HCP0); assay: Inhibition of CK1gamma1 (unknown origin) in presence of 5 mM ATP
# [18] = target: T2, Dual specificity tyrosine-phosphorylation-regulated kinase 2 (Homo sapiens) (UniProt Q92630); assay: Inhibition of human recombinant full length N-terminal GST-tagged DYRK2 expressed in Escherichia coli at 0.1 uM incubated for 60 mins by TR-FRET based LanthaScreen Eu kinase binding assay relative to control
# T2 sequence (whole entry): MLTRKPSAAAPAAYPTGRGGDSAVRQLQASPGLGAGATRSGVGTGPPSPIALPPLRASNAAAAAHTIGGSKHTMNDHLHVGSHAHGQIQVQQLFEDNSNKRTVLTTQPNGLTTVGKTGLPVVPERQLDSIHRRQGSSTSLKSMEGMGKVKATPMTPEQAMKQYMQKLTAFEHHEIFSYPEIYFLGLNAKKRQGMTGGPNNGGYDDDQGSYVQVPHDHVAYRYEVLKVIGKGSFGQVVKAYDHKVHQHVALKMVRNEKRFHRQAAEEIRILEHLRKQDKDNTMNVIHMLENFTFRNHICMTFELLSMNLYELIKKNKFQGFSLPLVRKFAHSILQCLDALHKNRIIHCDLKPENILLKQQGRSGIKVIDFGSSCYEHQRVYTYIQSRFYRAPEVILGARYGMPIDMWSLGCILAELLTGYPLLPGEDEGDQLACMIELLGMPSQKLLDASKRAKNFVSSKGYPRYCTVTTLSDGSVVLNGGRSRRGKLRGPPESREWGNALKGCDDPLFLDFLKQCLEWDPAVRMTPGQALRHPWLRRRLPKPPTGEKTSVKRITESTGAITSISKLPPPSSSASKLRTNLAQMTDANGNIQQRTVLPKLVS
# [19] = target: Mitogen-activated protein kinase kinase kinase 9 (Homo sapiens) (UniProt P80192); assay: Inhibition of human recombinant MAP3K9 using casein as substrate at 1 uM incubated for 40 mins in presence of [gamma32P]-ATP by scintillation counting method relative to control
# [20] = target: Mitogen-activated protein kinase 8 (Homo sapiens, UniProt P45983); assay: Inhibition of human recombinant full-length JNK1 using ATF2 as substrate at1 uM incubated for 40 mins in presence of [gamma32P]-ATP by scintillation counting method relative to control; conditions: dose 1.0 µM
# [21] = target: Glycogen synthase kinase-3 beta (Homo sapiens, UniProt P49841); assay: Inhibition of GSK3beta (unknown origin) in presence of 5 mM ATP
# [22] = Solubility of compound in pH 7.4 PBS buffer using crystalline form of sample; format: physicochemical
# [23] = Drug metabolism in human hepatocytes assessed as (1S,3R)-3-acetamido-N-(5-chloro-4-(5-(4-hydroxybutyl)-1H-pyrazol-4-yl)pyridin-2-yl)cyclohexanecarboxamide metabolite formation; format: ADME, cell-based, Hepatocyte
# [24] = Drug metabolism in human hepatocytes assessed as (1S,3R)-3-acetamido-N-(5-chloro-4-(7-hydroxy-4,5,6,7-tetrahydropyrazolo[1,5-a]pyridin-3-yl)pyridin2-yl)cyclohexanecarboxamide metabolite formation; format: ADME, cell-based, Hepatocyte
# [25] = Volume of distribution at steady state in Beagle dog at 5.2 umol/kg, iv administered as 0.25 hrs formulated as solution in 5% DMSO; format: ADME, organism-based, Canis lupus familiaris; conditions: in vivo, dose 5.2 µmol/kg, read-out: Vdss
# T1 sequence (P50750 whole entry): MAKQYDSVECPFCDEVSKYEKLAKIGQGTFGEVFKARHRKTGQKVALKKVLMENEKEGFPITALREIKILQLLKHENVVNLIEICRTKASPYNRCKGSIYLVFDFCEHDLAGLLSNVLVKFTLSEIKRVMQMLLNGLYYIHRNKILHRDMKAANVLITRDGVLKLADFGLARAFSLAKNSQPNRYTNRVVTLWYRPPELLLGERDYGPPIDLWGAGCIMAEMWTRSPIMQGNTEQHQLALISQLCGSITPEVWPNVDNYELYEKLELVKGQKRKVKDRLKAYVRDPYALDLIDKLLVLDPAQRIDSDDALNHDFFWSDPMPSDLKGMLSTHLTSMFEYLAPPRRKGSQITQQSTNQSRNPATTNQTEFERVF
# Chain of Mitogen-activated protein kinase kinase kinase 9 (Homo sapiens) (P80192 whole entry, looked up): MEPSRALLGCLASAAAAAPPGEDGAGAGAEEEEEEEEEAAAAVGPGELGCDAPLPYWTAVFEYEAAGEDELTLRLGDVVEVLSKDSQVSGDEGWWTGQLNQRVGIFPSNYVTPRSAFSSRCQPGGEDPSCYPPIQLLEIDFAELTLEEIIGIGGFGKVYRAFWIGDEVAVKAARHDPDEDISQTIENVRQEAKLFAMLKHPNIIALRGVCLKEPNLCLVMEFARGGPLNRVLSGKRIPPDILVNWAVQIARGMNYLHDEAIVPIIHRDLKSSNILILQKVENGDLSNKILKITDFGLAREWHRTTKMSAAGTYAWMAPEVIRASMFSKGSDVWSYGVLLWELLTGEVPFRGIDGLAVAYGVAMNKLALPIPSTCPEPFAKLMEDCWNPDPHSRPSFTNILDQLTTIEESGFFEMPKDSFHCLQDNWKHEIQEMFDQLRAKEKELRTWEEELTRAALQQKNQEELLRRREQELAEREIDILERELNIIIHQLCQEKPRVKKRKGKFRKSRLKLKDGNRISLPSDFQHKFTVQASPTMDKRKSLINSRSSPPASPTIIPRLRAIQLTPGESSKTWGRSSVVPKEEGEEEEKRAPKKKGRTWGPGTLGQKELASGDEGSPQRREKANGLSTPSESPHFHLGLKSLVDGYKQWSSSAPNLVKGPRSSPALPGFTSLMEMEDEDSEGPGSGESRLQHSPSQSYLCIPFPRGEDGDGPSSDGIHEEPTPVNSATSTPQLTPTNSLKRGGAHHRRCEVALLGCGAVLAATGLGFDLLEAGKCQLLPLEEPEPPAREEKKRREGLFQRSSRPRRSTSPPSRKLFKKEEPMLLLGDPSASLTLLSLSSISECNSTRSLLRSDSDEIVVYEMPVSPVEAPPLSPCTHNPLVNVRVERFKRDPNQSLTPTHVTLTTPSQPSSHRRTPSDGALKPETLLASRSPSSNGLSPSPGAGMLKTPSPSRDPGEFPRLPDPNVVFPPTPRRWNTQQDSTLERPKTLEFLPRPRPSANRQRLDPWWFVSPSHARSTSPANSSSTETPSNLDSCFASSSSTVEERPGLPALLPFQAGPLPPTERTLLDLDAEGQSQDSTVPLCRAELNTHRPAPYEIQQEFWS
# Chain of Mitogen-activated protein kinase 8 (P45983 whole entry): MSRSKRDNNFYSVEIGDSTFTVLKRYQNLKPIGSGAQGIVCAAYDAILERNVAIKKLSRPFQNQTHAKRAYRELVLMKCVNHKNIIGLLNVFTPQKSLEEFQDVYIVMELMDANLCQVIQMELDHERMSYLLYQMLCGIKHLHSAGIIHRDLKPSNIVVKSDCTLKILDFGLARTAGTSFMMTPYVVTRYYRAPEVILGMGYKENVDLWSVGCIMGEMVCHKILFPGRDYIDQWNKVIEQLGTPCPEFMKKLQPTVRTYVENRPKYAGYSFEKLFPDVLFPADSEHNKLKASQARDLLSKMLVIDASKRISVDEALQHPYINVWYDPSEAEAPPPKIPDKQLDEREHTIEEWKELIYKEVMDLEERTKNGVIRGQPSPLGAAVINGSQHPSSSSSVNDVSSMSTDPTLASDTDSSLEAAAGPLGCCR
# Chain of Casein kinase I isoform gamma-1 (Q9HCP0 whole entry, canonical isoform): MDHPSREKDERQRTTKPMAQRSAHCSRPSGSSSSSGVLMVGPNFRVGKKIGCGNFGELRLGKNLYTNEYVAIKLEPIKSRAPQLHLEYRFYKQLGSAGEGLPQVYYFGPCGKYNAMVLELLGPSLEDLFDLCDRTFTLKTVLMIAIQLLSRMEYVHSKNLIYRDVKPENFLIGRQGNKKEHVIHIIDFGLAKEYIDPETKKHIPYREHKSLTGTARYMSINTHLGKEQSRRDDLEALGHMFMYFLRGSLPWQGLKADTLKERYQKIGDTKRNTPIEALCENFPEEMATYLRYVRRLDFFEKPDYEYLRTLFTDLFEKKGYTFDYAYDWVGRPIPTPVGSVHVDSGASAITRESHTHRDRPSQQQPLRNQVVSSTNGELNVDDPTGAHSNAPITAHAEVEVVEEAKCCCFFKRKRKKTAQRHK
# Chain of CDK9/cyclin T1 (Homo sapiens, UniProt O60563+P50750) (O60563 whole entry): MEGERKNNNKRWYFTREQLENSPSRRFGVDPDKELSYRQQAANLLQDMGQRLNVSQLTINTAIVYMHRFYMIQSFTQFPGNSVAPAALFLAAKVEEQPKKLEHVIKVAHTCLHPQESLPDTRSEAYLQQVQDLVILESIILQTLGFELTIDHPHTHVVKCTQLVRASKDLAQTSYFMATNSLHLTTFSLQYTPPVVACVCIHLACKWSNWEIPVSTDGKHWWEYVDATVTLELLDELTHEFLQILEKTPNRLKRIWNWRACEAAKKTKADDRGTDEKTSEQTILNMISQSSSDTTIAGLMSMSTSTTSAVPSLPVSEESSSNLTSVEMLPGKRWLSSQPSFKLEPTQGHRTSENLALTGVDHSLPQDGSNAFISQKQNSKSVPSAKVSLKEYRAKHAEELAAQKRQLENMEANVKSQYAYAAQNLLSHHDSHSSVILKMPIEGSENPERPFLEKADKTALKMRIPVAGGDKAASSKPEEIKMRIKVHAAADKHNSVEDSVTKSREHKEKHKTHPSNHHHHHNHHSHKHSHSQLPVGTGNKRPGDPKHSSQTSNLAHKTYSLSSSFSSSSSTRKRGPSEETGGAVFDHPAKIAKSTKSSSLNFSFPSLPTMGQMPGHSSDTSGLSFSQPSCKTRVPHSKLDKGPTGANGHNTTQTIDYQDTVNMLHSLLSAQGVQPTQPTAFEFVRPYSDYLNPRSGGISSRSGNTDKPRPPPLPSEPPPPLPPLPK
# Chain of CDK9/cyclin T1 (Homo sapiens, UniProt O60563+P50750) (P50750 whole entry): as the sequence (P50750 whole entry) above
# Chain of CDK9/cyclin T1 (Homo sapiens, UniProt P50750) (O60563 whole entry): as the sequence (O60563 whole entry) above
# Chain of CDK9/cyclin T1 (Homo sapiens, UniProt P50750) (P50750 whole entry): as the sequence (P50750 whole entry) above
# Chain of Glycogen synthase kinase-3 beta (P49841 whole entry): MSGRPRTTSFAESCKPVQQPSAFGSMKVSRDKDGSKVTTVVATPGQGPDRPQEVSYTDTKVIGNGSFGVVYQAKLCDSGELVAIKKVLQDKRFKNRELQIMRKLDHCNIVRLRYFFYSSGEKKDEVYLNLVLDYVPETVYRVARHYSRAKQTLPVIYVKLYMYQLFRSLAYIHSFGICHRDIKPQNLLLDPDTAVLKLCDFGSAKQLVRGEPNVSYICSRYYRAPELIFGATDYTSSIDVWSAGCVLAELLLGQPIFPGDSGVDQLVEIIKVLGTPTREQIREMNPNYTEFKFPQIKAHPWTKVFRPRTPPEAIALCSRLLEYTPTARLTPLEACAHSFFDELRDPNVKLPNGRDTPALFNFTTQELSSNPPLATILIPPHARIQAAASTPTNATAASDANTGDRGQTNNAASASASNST
smiles,measurement,setting,value
CC(=O)N[C@@H]1CCC[C@H](C(=O)Nc2cc(-c3cnn4c3CC(C)(C)C4)c(F)cn2)C1,Ratio IC50,Homo sapiens [1],16
same,Ratio IC50,Homo sapiens [2],5
same,Ratio IC50,Homo sapiens [3],16
same,Drug metabolism,[4],Metabolite_Detected
same,clearance at 0.25 h,[5],53 mL/min/kg
same,inhibition,[6],92%
same,koff,CDK9/cyclin T1 [7],569 10^-6/s
same,Kd,CDK9/cyclin T1 [8],0.123 nM
same,IC50,[9],25 nM
same,EC50,[10],29 nM
CC(=O)N[C@@H]1CCC[C@H](C(=O)Nc2cc(-c3cnn4c3CC(C)(C)C4)c(Cl)cn2)C1 [ZEMIRCICLIB],inhibition in vivo at 5 mg/kg,MV4-11 [11],97%
same,Activity,MV4-11 [12],Dose-dependent effect
same,Drug metabolism,[13],Metabolite_Detected
same,Vd,[14],0.67 L/kg
same,clearance,[15],19 mL/min/kg
same,clearance,[16],55 mL/min/kg
same,IC50,[17],5520 nM
same,inhibition,[18],85%
same,inhibition,[19],82%
same,inhibition,[20],90%
same,IC50,[21],247 nM
CC(=O)N[C@@H]1CCC[C@H](C(=O)Nc2cc(-c3cnn4c3CCCC4)c(Cl)cn2)C1,solubility thermodynamic,[22],94 µg/mL
same,Drug metabolism,[23],Metabolite_Detected
same,Drug metabolism,[24],Metabolite_Detected
same,Vd,[25],0.9 L/kg
